The target of this assay is PDE9A (Homo sapiens (Human), UniProt O76083). The assay can be described thus: PDE9A inhibition, fluorescence polarization assay (IMAP-FP screening express kit). It counts as biochemical. Particulars: for IC50: Fl-cGMP substrate 100 nM, PDE9A 5 ng/ml, 1 hour at room temperature; for inhibition at 10 µM: 10 μM of the compound. On the procedure: The inhibitory activity of the representative compounds according to the present invention against phosphodiesterase 9A was tested based on the polarization assay (IMAP-FP screening express kit) provided by MDS (MDS Analytical Technologies, Sunyvale, CA, USA). As a buffer solution, a reaction solution (a reaction solution containing 0.01% Tween 20 provided by MDS was diluted 5 times, then 5 mM DTT is added) and a polarization detection solution (binding solution A and B provided by MDS were mixed at a ratio of 3:1 and IMAP binding reagent 1/600 was added) were prepared. 100 μM of the substrate (Fl-cGMP substrate; MDS) and 3.6 μg/ml of the enzyme PDE9A (ab54113; abcam) were prepared. 3.6 μg/ml PDE9A and 100 μM substrate were diluted to 20 ng/ml (final reaction concentration: 5 ng/ml) and 400 nM (final reaction concentration: 100 nM), respectively. The buffer solution used for all dilution and preparation processes was 1× reaction solution with 1 mM DTT added, and the polarization detection solution was used to induce polarization at the end.
The prepared samples were dispensed on black microplates (Multiwell 384 well plates, #3573, Corning Life Sciences, Lowell, MA, USA) using a 16-channel pipette (multi 16-channel, Finnpipette, Thermo Scientific, Essex, UK). The total reaction volume per well is 20 μl. At this time, 10 μl of 2% DMSO, 5 μl of substrate solution, and 5 μl of reaction solution were used as a negative control, and 10 μl of 2% DMSO, 5 μl of substrate solution, and 5 μl of PDE9A solution were used as a positive control. As the experimental group, 10 μl of the compound prepared in Example, 5 μl of the substrate solution, and 5 μl of the PDE9A solution were used. After pretreatment between the compound and the enzyme was performed for about 10 minutes before the enzyme-substrate reaction, 5 μl of cGMP was added to induce the enzyme reaction. During the reaction, each compound, enzyme, and substrate occupied 50%, 25%, and 25% of the total volume, respectively, and they were prepared at high concentrations of 2, 4, and 4 times, respectively, immediately before addition. After the enzymatic reaction, it was shaken lightly for 1 minute and the enzyme reaction was induced at room temperature for 1 hour. Then, 60 μl of a polarization detection solution prepared in advance was added to induce polarization.
Nanoparticles composed of trivalent metal ions are mixed in the fluorescence detection solution, which combines with phosphoric acid expose by enzymatic reaction to increase the molecular weight and induce polarization. After leaving for 2 hours at room temperature, the polarization (Fluorescence Polarization, FP) value was measured using a multilabel counter (Envision, PerkinElmer, Turku, Finland) (emission wavelength: P-535 nm, S-535 nm, excitation wavelength: 480 nm), and the result was expressed as an IC50 value, which is the concentration of the compound that inhibited PDE9A by 50% in vitro (Table 2).
A general note: In fluorescence polarisation assays a small probe gives low polarisation when free and higher when bound to something large.

27 molecules from patent publication US12195469B2, “Compounds having PDE9A inhibitory activity, and pharmaceutical uses thereof” (KOREA RESEARCH INSTITUTE OF CHEMICAL TECHNOLOGY, priority 2018, dated 2025) can be followed below.

By IC50 is commonly meant the midpoint of a concentration-inhibition curve. The term inhibition denotes how much of the control response was suppressed. Lower therefore signals little suppression.

PDE9A, sequence (O76083 whole entry): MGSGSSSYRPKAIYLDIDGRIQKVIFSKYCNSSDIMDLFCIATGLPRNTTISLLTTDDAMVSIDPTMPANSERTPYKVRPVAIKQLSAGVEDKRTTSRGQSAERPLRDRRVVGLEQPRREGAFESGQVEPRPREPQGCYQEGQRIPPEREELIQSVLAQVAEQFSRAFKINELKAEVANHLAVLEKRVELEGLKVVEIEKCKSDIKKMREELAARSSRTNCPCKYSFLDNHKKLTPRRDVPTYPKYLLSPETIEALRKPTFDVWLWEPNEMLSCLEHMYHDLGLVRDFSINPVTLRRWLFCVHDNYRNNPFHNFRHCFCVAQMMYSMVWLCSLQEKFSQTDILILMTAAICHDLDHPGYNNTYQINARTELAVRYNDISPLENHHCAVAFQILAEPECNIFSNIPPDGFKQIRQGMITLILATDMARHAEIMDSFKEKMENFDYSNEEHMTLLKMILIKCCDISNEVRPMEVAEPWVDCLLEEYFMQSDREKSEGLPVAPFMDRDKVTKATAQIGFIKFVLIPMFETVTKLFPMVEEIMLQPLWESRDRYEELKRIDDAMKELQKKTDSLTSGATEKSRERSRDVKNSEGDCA

On to `CC(C)(C)c1ccc2oc(CSc3nc4c(cnn4C4CCC(F)(F)CC4)c(=O)[nH]3)nc2c1` [Example 42, 6-(((5-(tert-butyl)benzo[d]oxazol-2-yl)methyl)thio)-1-(4,4-difluorocyclohexyl)-1,5-dihydro-4H-pyrazolo[3,4-d]pyrimidin-4-one], for which 130 nM corresponded to half-maximal inhibition (IC50).
The same measure, in the same setting: the value for `Cc1ccc2nc(C(C)Sc3nc4c(cnn4C4CCOCC4)c(=O)[nH]3)oc2c1` (stereo not drawn) [Example 23, 6-((1-(6-methylbenzo[d]oxazol-2-yl)ethyl)thio)-1-(tetrahydro-2H-pyran-4-yl)-1,5-dihydro-4H-pyrazolo[3,4-d]pyrimidin-4-one] was 2 nM.
Take `O=c1[nH]c(SCc2nc3cc(-c4ccccc4)ccc3o2)nc2c1cnn2-c1ccccc1` [Example 25, 1-phenyl-6-(((5-phenylbenzo[d]oxazol-2-yl)methyl)thio)-1,5-dihydro-4H-pyrazolo[3,4-d]pyrimidin-4-one]: 10 µM produced 10.3% inhibition.
The molecule `O=c1[nH]c(SCc2nc3cc(F)ccc3o2)nc2c1cnn2-c1ccccc1` [Example 4, 6-(((5-fluorobenzo[d]oxazol-2-yl)methyl)thio)-1-phenyl-1,5-dihydro-4H-pyrazolo[3,4-d]pyrimidin-4-one] came in with an IC50 of 83 nM. This lies in the double-digit nanomolar range.
In the case of `Cc1ccc2nc(CSc3nc4c(cnn4C4CCCCC4)c(=O)[nH]3)oc2c1` [Example 16, 6-(((6-methylbenzo[d]oxazol-2-yl)methyl)thio)-1-cyclohexyl-1,5-dihydro-4H-pyrazolo[3,4-d]pyrimidin-4-one], the IC50 is 6 nM.
Turning to `O=c1[nH]c(SCc2nc3cc([N+](=O)[O-])ccc3o2)nc2c1cnn2-c1ccccc1` [Example 29, 6-(((5-nitrobenzo[d]oxazol-2-yl)methyl)thio)-1-phenyl-1,5-dihydro-4H-pyrazolo[3,4-d]pyrimidin-4-one], 2400 nM corresponded to half-maximal inhibition (IC50).
`Cc1ccc2nc(C(C)Sc3nc4c(cnn4C4CCC(F)(F)CC4)c(=O)[nH]3)oc2c1` (stereo not drawn) [Example 22, 1-(4,4-difluorocyclohexyl)-6-((1-(6-methylbenzo[d]oxazol-2-yl)ethyl)thio)-1,5-dihydro-4H-pyrazolo[3,4-d]pyrimidin-4-one] registered an IC50 of 6 nM.
Same read-out and setting: the value for `CC(C)n1ncc2c(=O)[nH]c(SCc3nc4ccccc4o3)nc21` [Example 11, 6-((benzo[d]oxazol-2-ylmethyl)thio)-1-isopropyl-1,5-dihydro-4H-pyrazolo[3,4-d]pyrimidin-4-one] was 6 nM; that for `Cc1cc(C)c2oc(CSc3nc4c(cnn4C4CCC(F)(F)CC4)c(=O)[nH]3)nc2c1` [Example 44, 1-(4,4-difluorocyclohexyl)-6-(((5,7-dimethylbenzo[d]oxazol-2-yl)methyl)thio)-1,5-dihydro-4H-pyrazolo[3,4-d]pyrimidin-4-one] was 15 nM; that for `O=c1[nH]c(SCc2nc3cc(Cl)cc(Cl)c3o2)nc2c1cnn2C1CCC(F)(F)CC1` [Example 43, 6-(((5,7-dichlorobenzo[d]oxazol-2-yl)methyl)thio)-1-(4,4-difluorocyclohexyl)-1,5-dihydro-4H-pyrazolo[3,4-d]pyrimidin-4-one] was 120 nM.
`COc1ccc2oc(CSc3nc4c(cnn4C4CCC(F)(F)CC4)c(=O)[nH]3)nc2c1` [Example 45, 1-(4,4-difluorocyclohexyl)-6-(((5-methoxybenzo[d]oxazol-2-yl)methyl)thio)-1,5-dihydro-4H-pyrazolo[3,4-d]pyrimidin-4-one]: half-maximal inhibition (IC50) was put at 8 nM.
On the same count and under the same terms, the value for `Cc1cccc2oc(CSc3nc4c(cnn4C4CCOCC4)c(=O)[nH]3)nc12` [Example 52, 6-(((4-methylbenzo[d]oxazol-2-yl)methyl)thio)-1-(tetrahydro-2H-pyran-4-yl)-1,5-dihydro-4H-pyrazolo[3,4-d]pyrimidin-4-one] was 17 nM.
Consider `CC(C)(C)c1ccc2oc(CSc3nc4c(cnn4C4CCOCC4)c(=O)[nH]3)nc2c1` [Example 53, 6-(((5-(tert-butyl)benzo[d]oxazol-2-yl)methyl)thio)-1-(tetrahydro-2H-pyran4-yl)-1,5-dihydro-4H-pyrazolo[3,4-d]pyrimidin-4-one], for which it took 45 nM to reach half-maximal inhibition (IC50). Against the preceding molecule, the IC50 is about 2.6-fold higher.
Still for that read-out and setting: the value for `O=c1[nH]c(SCc2nc3cc(Cl)ccc3o2)nc2c1cnn2-c1ccccc1` [Example 6, 6-(((5-chlorobenzo[d]oxazol-2-yl)methyl)thio)-1-phenyl-1,5-dihydro-4H-pyrazolo[3,4-d]pyrimidin-4-one] was 190 nM; that for `O=c1[nH]c(SCc2nc3ccccc3o2)nc2c1cnn2C1CCC(F)(F)CC1` [Example 8, 6-((benzo[d]oxazol-2-ylmethyl)thio)-1-(4,4-difluorocyclohexyl)-1,5-dihydro-4H-pyrazolo[3,4-d]pyrimidin-4-one] was 5 nM; that for `O=c1[nH]c(SCc2nc3cc(Cl)c([N+](=O)[O-])cc3o2)nc2c1cnn2C1CCC(F)(F)CC1` [Example 40, 6-(((5-chloro-6-nitrobenzo[d]oxazol-2-yl)methyl)thio)-1-(4,4-difluorocyclohexyl)-1,5-dihydro-4H-pyrazolo[3,4-d]pyrimidin-4-one] was 1660 nM.
Consider `COc1ccc2nc(CSc3nc4c(cnn4C4CCOCC4)c(=O)[nH]3)oc2c1` [Example 56, 6-(((6-methoxybenzo[d]oxazol-2-yl)methyl)thio)-1-(tetrahydro-2H-pyran-4-yl)-1,5-dihydro-4H-pyrazolo[3,4-d]pyrimidin-4-one], for which the midpoint of inhibition, the IC50, lay at 3 nM.
On the same count and under the same terms, the value for `O=c1[nH]c(SCc2nc3cc([N+](=O)[O-])ccc3o2)nc2c1cnn2C1CCC(F)(F)CC1` [Example 38, 1-(4,4-difluorocyclohexyl)-6-(((5-nitrobenzo[d]oxazol-2-yl)methyl)thio)-1,5-dihydro-4H-pyrazolo[3,4-d]pyrimidin-4-one] was 45 nM; that for `O=c1[nH]c(SCc2nc3ccccc3o2)nc2c1cnn2C1CC1` [Example 10, 6-((benzo[d]oxazol-2-ylmethyl)thio)-1-cyclopropyl-1,5-dihydro-4H-pyrazolo[3,4-d]pyrimidin-4-one] was 220 nM.
In turn, `O=c1[nH]c(SCc2nc3cc(Cl)c([N+](=O)[O-])cc3o2)nc2c1cnn2-c1ccccc1` [Example 31] yielded an inhibition at 10 µM of 38.9%.
Consider `O=c1[nH]c(SCc2nc3ccc([N+](=O)[O-])cc3o2)nc2c1cnn2C1CCOCC1` [Example 48, 6-(((6-nitrobenzo[d]oxazol-2-yl)methyl)thio)-1-(tetrahydro-2H-pyran-4-yl)-1,5-dihydro-4H-pyrazolo[3,4-d]pyrimidin-4-one], for which the half-maximal inhibitory concentration (IC50) stood at 23 nM.
In turn, `O=c1[nH]c(SCc2nc3cc(C(F)(F)F)ccc3o2)nc2c1cnn2C1CCC(F)(F)CC1` [Example 47, 1-(4,4-difluorocyclohexyl)-6-(((5-(trifluoromethyl)benzo[d]oxazol-2-yl)methyl)thio)-1,5-dihydro-4H-pyrazolo[3,4-d]pyrimidin-4-one] came in with a half-inhibitory concentration (IC50) of 120 nM.
Same read-out and setting: the value for `CC(Sc1nc2c(cnn2-c2ccccc2)c(=O)[nH]1)c1nc2ccccc2o1` (stereo not drawn) [Example 19, 6-((1-(benzo[d]oxazol-2-yl)ethyl)thio)-1-phenyl-1,5-dihydro-4H-pyrazolo[3,4-d]pyrimidin-4-one] was 28 nM; that for `Cc1ccc2nc(CSc3nc4c(cnn4C(C)C)c(=O)[nH]3)oc2c1` [Example 18, 6-(((6-methylbenzo[d]oxazol-2-yl)methyl)thio)-1-isopropyl-1,5-dihydro-4H-pyrazolo[3,4-d]pyrimidin-4-one] was 4 nM; that for `Cc1ccc2nc(C(C)Sc3nc4c(cnn4C4CCSCC4)c(=O)[nH]3)oc2c1` (stereo not drawn) [Example 24, 6-((1-(6-methylbenzo[d]oxazol-2-yl)ethyl)thio)-1-(tetrahydro-2H-thiopyran-4-yl)-1,5-dihydro-4H-pyrazolo[3,4-d]pyrimidin-4-one] was 5 nM.
Consider `O=c1[nH]c(SCc2nc3cc(C(F)(F)F)ccc3o2)nc2c1cnn2-c1ccccc1` [Example 36, 1-phenyl-6-(((5-(trifluoromethyl)benzo[d]oxazol-2-yl)methyl)thio)-1,5-dihydro-4H-pyrazolo[3,4-d]pyrimidin-4-one], for which the IC50 amounted to 34100 nM.
On the same count and under the same terms, the value for `Cc1ccc2nc(CSc3nc4c(cnn4C4CC4)c(=O)[nH]3)oc2c1` [Example 17, 6-(((6-methylbenzo[d]oxazol-2-yl)methyl)thio)-1-cyclopropyl-1,5-dihydro-4H-pyrazolo[3,4-d]pyrimidin-4-one] was 190 nM.
